From the NIST ThermoML archive (doi:10.1021/je049609w)
Values joined by “and” are separate entries in the source; they are usually repeats but may differ in a detail not shown here. Equal values may be shown once.

Assays:
[1] = refractive index (Na D-line) (dimensionless); conditions: 101.33 kPa, Liquid
[2] = 101 kPa, Liquid
[3] = refractive index (Na D-line) (dimensionless); xn = mol fraction of the nth substance listed; conditions: 101 kPa, Liquid
[4] = xn = mol fraction of the nth substance listed; conditions: 101 kPa, Liquid

OCCCl [1-chloro-2-hydroxyethane]
Conditions	mass density, 298.15 K [kg/m3]	mass density, 303.15 K [kg/m3]	mass density, 308.15 K [kg/m3]	refractive index, 298.15 K	refractive index, 303.15 K	refractive index, 308.15 K	speed of sound, 298.15 K [m/s]	viscosity, 298.15 K [mPa·s]	viscosity, 303.15 K [mPa·s]	viscosity, 308.15 K [mPa·s]
[1]	–	–	–	1.4411	1.438	1.4326	–	–	–	–
[2]	1200.9	1192.5	1187.1	–	–	–	1358	3.104	2.669	2.347

C1COCCO1 [1,4-dioxane]
Conditions	mass density, 298.15 K [kg/m3]	mass density, 303.15 K [kg/m3]	mass density, 308.15 K [kg/m3]	refractive index, 298.15 K	refractive index, 303.15 K	refractive index, 308.15 K	speed of sound, 298.15 K [m/s]	viscosity, 298.15 K	viscosity, 303.15 K	viscosity, 308.15 K [mPa·s]
[1]	–	–	–	1.4203	1.4164	1.4145	–	–	–	–
[2]	1028.6	1022.9	1017.2	–	–	–	1345	1.196 mPa·s and 1.195 mPa·s	1.102 mPa·s and 1.095 mPa·s	1.008

CCOC(C)=O [ethyl acetate]
Conditions	mass density, 298.15 K [kg/m3]	mass density, 303.15 K [kg/m3]	mass density, 308.15 K [kg/m3]	refractive index, 298.15 K	refractive index, 303.15 K	refractive index, 308.15 K	speed of sound, 298.15 K [m/s]	viscosity, 298.15 K [mPa·s]	viscosity, 303.15 K [mPa·s]	viscosity, 308.15 K [mPa·s]
[1]	–	–	–	1.3713	1.3673	1.3631	–	–	–	–
[2]	894.2	887.9	881.6	–	–	–	1155	0.438	0.414	0.392

ClC=C(Cl)Cl [trichloroethene]
Conditions	mass density, 298.15 K [kg/m3]	mass density, 303.15 K [kg/m3]	mass density, 308.15 K [kg/m3]	refractive index, 298.15 K	refractive index, 303.15 K	refractive index, 308.15 K	speed of sound, 298.15 K [m/s]	viscosity, 298.15 K [mPa·s]	viscosity, 303.15 K [mPa·s]	viscosity, 308.15 K [mPa·s]
[1]	–	–	–	1.476	1.4729	1.4698	–	–	–	–
[2]	1455.4	1447	1438.5	–	–	–	1027	0.573	0.547	0.521

Clc1ccccc1Cl [1,2-dichlorobenzene]
Conditions	mass density, 298.15 K [kg/m3]	mass density, 303.15 K [kg/m3]	mass density, 308.15 K [kg/m3]	refractive index, 298.15 K	refractive index, 303.15 K	refractive index, 308.15 K	speed of sound, 298.15 K [m/s]	viscosity, 298.15 K [mPa·s]	viscosity, 303.15 K [mPa·s]	viscosity, 308.15 K [mPa·s]
[1]	–	–	–	1.5499	1.5476	1.545	–	–	–	–
[2]	1300.9	1295.4	1289.7	–	–	–	1280	1.324	1.214	1.105

CC(=O)N(C)C [N,N-dimethylethanamide]
Conditions	mass density, 298.15 K [kg/m3]	mass density, 303.15 K [kg/m3]	mass density, 308.15 K [kg/m3]	refractive index, 298.15 K	refractive index, 303.15 K	refractive index, 308.15 K	speed of sound, 298.15 K [m/s]	viscosity, 298.15 K [mPa·s]	viscosity, 303.15 K [mPa·s]	viscosity, 308.15 K [mPa·s]
[1]	–	–	–	1.4363	1.4342	1.432	–	–	–	–
[2]	946.8	942.1	937.5	–	–	–	1458	1.261	1.154	1.047

CCOC(=O)CC(=O)OCC [diethyl 1,3-propanedioate]
Conditions	mass density, 298.15 K [kg/m3]	mass density, 303.15 K [kg/m3]	mass density, 308.15 K [kg/m3]	refractive index, 298.15 K	refractive index, 303.15 K	refractive index, 308.15 K	speed of sound, 298.15 K [m/s]	viscosity, 298.15 K [mPa·s]	viscosity, 303.15 K [mPa·s]	viscosity, 308.15 K [mPa·s]
[1]	–	–	–	1.4132	1.4108	1.4085	–	–	–	–
[2]	1049.6	1044.2	1038.8	–	–	–	1304	1.941	1.755	1.602

ClC=C(Cl)Cl [trichloroethene] + C1COCCO1
Conditions	mass density, 298.15 K [kg/m3]	mass density, 303.15 K [kg/m3]	mass density, 308.15 K [kg/m3]	refractive index, 298.15 K	refractive index, 303.15 K	refractive index, 308.15 K	speed of sound, 298.15 K [m/s]	viscosity, 298.15 K [mPa·s]	viscosity, 303.15 K [mPa·s]	viscosity, 308.15 K [mPa·s]
[3], x2 = 0	–	–	–	1.476	1.4729	1.4698	–	–	–	–
[3], x2 = 0.1006	–	–	–	1.4704	1.4673	1.4643	–	–	–	–
[3], x2 = 0.201	–	–	–	1.4648	1.4618	1.4587	–	–	–	–
[3], x2 = 0.2983	–	–	–	1.4592	1.4562	1.4532	–	–	–	–
[3], x2 = 0.3995	–	–	–	1.4536	1.4507	1.4477	–	–	–	–
[3], x2 = 0.507	–	–	–	1.4476	1.4446	1.4417	–	–	–	–
[3], x2 = 0.5993	–	–	–	1.4426	1.4396	1.4366	–	–	–	–
[3], x2 = 0.6969	–	–	–	1.4373	1.4344	1.4315	–	–	–	–
[3], x2 = 0.802	–	–	–	1.4314	1.4285	1.4256	–	–	–	–
[3], x2 = 0.9003	–	–	–	1.426	1.4231	1.4202	–	–	–	–
[4], x2 = 0	1455.4	1447	1438.5	–	–	–	1027	0.573	0.547	0.521
[4], x2 = 0.1006	1412.7	1404.6	1396.4	–	–	–	1059	0.635	0.602	0.569
[4], x2 = 0.201	1370.1	1362.2	1354.2	–	–	–	1091	0.697	0.658	0.618
[4], x2 = 0.2983	1327.9	1320.3	1312.8	–	–	–	1122	0.758	0.712	0.665
[4], x2 = 0.3995	1284.4	1277.2	1270	–	–	–	1152	0.821	0.768	0.714
[4], x2 = 0.507	1238.6	1231.5	1224.5	–	–	–	1187	0.888	0.827	0.767
[4], x2 = 0.5993	1199.3	1192.5	1185.7	–	–	–	1215	0.945	0.878	0.812
[4], x2 = 0.6969	1158.5	1152.1	1145.6	–	–	–	1246	1.006	0.933	0.859
[4], x2 = 0.802	1114	1107.7	1101.5	–	–	–	1276	1.072	0.991	0.911
[4], x2 = 0.9003	1072.1	1066.2	1060	–	–	–	1307	1.133	1.046	0.959
